In patent US9187446B2, “Antibacterial agents: sidechainfluorinated myxopyronin derivatives” (RUTGERS, THE STATE UNIVERSITY OF NEW JERSEY, priority 2012, dated 2015):
In brackets after ≈: the same amount, converted by molar mass. Like-named read-outs stand apart in the source and are kept apart here.

Assays:
[1] = biological target: E. coli RNA polymerase σ^70 holoenzyme (Escherichia coli, UniProt P0A8T7+P0A8V2); assay: Fluorescence-detected inhibition of Escherichia coli RNA polymerase; format: biochemical; details: read-out: IC50 E. coli RNAP
Method: (§1) Fluorescence-detected RNA polymerase assays with E. coli RNA polymerase were performed by a modification of the procedure of Kuhlman et al., 2004 [Kuhlman, P., Duff, H. & Galant, A. (2004) A fluorescence-based assay for multisubunit DNA-dependent RNA polymerases. Anal. Biochem. 324, 183-190]. Reaction mixtures contained (20 μl): 0-100 nM test compound, 75 nM E. coli RNA polymerase σ^70 holoenzyme, 20 nM 384 bp DNA fragment containing the bacteriophage T4 N25 promoter, 100 μM ATP, 100 μM GTP, 100 μM UTP, 100 μM CTP, 50 mM Tris-HCl, pH 8.0, 100 mM KCl, 10 mM MgCl2, 1 mM DTT, 10 μg/ml bovine serum albumin, and 5.5% glycerol. Reaction components other than DNA and NTPs were pre-incubated for 10 min at 37° C. Reactions were carried out by addition of DNA and incubation for 5 min at 37° C., followed by addition of NTPs and incubation for 60 min at 37° C. DNA was removed by addition of 1 μl 5 mM CaCl2 and 2 U DNaseI (Ambion, Inc.), followed by incubation for 90 min at 37° C. RNA was quantified by addition of 100 μl RiboGreen RNA Quantitation Reagent (Invitrogen, Inc.; 1:500 dilution in Tris-HCl, pH 8.0, 1 mM EDTA), followed by incubation for 10 min at 25° C., followed by measurement of fluorescence intensity [excitation wavelength=485 nm and emission wavelength=535 nm; QuantaMaster QM1 spectrofluorometer (PTI, Inc.)]. IC50 is defined as the concentration of inhibitor resulting in 50% inhibition of RNA polymerase activity.

[2] = biological target: M. tuberculosis RNA polymerase core enzyme, M. tuberculosis σ^A (Mycobacterium tuberculosis, UniProt P9WGY7+P9WGY9); assay: Fluorescence-detected inhibition of Mycobacterium tuberculosis RNA polymerase; format: biochemical
Method: as §1
(§2) Fluorescence-detected RNA polymerase assays with M. tuberculosis RNA polymerase were performed as in Example 17.1, using reaction mixtures containing (20 μl): 0-100 nM test compound, 75 nM M. tuberculosis RNA polymerase core enzyme, 300 nM M. tuberculosis σ^A, 20 nM 384 bp DNA fragment containing the bacteriophage […] N25 promoter, 100 μM ATP, 100 GTP, 100 μM UTP, 100 μM CTP, 40 mM Tris-HCl, pH 8.0, 80 mM NaCl, 5 mM MgCl2, 2.5 mM DTT, and 12.7% glycerol. IC50 is defined as the concentration of inhibitor resulting in 50% inhibition of RNA polymerase activity.

[3] = tested on: Escherichia coli D212f2tolC; details: MIC in presence of 10% mouse serum divided by MIC in absence of 10% mouse serum
[4] = tested on: Enterococcus faecalis ATCC strain 19433; assay: MIC, spiral gradient endpoint assay, E. faecalis; details: for MIC: Enterococcus faecalis, ATCC19433, 16 h, read-out: MIC E. faecalis 19433
[5] = biological target: S. aureus RNA polymerase core enzyme, S. aureus σ^A (Staphylococcus aureus, UniProt P47768+Q2G0N5); assay: Fluorescence-detected inhibition of Staphylococcus aureus RNA polymerase; format: biochemical
Method: as §1
as §2, with “assays with S. aureus RNA polymerase” for “assays with M. tuberculosis RNA polymerase”, “75 nM S. aureus RNA polymerase” for “75 nM M. tuberculosis RNA polymerase”, “300 nM S. aureus σ^A, 20” for “300 nM M. tuberculosis σ^A, 20”, “ATP, 100 μM GTP, 100” for “ATP, 100 GTP, 100”

[6] = tested on: Bacillus anthracis strain Vollum 1 b; assay: microbe, parasite or virus in culture; format: cell-based
[7] = tested on: Francisella tularensis strain SCHU4; assay: microbe, parasite or virus in culture; format: cell-based
[8] = tested on: Burkholderia mallei strain CHN7; assay: microbe, parasite or virus in culture; format: cell-based
[9] = tested on: Burkholderia pseudomallei strain Human/Blood/OH/US/1994; assay: microbe, parasite or virus in culture; format: cell-based
[10] = tested on: Brucella melitensis strain 16M; assay: microbe, parasite or virus in culture; format: cell-based
[11] = not given; remark: listed apart in the source
[12] = physchem; details: pH 7.4
[13] = Metabolic stability in the presence of human liver microsomes
[14] = read-out: IC50 M. tuberculosis RNAP

Sequence of S. aureus RNA polymerase core enzyme, S. aureus σ^A (Q2FW32 whole entry): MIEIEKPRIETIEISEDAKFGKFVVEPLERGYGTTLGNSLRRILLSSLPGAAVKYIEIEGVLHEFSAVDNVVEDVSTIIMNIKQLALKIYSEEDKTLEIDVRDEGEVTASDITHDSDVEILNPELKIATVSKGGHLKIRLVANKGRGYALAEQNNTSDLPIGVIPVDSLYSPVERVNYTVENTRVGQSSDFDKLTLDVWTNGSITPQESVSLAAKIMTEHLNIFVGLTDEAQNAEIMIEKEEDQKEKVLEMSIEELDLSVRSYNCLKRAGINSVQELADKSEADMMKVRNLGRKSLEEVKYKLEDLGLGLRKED
Sequence of S. aureus RNA polymerase core enzyme, S. aureus σ^A (P0A0J0 whole entry, further chain): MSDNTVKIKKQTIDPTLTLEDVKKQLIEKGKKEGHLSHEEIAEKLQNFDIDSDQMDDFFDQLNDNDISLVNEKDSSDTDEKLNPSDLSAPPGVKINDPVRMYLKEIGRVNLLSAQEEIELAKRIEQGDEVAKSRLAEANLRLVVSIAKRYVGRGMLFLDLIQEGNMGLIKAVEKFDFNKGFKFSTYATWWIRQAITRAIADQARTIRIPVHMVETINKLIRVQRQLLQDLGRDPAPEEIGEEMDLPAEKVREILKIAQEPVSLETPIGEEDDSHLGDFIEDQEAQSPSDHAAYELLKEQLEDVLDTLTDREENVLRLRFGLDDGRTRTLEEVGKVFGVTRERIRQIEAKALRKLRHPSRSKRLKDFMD
Sequence of S. aureus RNA polymerase core enzyme, S. aureus σ^A (P47768 whole entry): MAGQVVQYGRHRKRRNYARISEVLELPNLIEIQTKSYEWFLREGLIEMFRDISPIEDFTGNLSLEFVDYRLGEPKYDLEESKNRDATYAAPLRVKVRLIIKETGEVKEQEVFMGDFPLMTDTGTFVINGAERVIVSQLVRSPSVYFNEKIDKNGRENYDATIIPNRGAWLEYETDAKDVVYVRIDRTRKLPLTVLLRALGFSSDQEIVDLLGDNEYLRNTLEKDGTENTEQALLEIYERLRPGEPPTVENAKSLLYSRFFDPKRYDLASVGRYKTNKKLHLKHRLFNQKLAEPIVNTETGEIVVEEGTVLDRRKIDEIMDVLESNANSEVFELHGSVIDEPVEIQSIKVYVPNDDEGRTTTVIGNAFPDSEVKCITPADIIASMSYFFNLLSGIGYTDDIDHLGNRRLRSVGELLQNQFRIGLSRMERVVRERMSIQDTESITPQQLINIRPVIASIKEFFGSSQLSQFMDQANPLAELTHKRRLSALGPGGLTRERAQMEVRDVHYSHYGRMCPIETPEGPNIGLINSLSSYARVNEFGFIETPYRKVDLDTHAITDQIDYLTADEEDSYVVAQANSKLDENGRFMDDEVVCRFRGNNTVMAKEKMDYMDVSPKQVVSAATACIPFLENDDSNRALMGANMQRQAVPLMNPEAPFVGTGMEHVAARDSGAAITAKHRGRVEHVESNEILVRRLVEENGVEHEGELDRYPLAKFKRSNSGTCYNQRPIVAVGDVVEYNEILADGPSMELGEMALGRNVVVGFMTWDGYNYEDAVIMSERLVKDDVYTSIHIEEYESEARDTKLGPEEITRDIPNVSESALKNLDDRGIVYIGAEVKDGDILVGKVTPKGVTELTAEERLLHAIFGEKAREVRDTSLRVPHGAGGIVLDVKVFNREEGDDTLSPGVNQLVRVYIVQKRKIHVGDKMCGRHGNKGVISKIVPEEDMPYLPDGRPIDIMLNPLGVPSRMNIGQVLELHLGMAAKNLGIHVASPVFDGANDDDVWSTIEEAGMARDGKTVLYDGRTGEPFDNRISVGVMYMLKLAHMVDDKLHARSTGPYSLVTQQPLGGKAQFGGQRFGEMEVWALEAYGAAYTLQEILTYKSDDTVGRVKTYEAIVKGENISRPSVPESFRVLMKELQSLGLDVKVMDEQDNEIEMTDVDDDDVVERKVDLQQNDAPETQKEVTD
Sequence of S. aureus RNA polymerase core enzyme, S. aureus σ^A (Q2G0N5 whole entry): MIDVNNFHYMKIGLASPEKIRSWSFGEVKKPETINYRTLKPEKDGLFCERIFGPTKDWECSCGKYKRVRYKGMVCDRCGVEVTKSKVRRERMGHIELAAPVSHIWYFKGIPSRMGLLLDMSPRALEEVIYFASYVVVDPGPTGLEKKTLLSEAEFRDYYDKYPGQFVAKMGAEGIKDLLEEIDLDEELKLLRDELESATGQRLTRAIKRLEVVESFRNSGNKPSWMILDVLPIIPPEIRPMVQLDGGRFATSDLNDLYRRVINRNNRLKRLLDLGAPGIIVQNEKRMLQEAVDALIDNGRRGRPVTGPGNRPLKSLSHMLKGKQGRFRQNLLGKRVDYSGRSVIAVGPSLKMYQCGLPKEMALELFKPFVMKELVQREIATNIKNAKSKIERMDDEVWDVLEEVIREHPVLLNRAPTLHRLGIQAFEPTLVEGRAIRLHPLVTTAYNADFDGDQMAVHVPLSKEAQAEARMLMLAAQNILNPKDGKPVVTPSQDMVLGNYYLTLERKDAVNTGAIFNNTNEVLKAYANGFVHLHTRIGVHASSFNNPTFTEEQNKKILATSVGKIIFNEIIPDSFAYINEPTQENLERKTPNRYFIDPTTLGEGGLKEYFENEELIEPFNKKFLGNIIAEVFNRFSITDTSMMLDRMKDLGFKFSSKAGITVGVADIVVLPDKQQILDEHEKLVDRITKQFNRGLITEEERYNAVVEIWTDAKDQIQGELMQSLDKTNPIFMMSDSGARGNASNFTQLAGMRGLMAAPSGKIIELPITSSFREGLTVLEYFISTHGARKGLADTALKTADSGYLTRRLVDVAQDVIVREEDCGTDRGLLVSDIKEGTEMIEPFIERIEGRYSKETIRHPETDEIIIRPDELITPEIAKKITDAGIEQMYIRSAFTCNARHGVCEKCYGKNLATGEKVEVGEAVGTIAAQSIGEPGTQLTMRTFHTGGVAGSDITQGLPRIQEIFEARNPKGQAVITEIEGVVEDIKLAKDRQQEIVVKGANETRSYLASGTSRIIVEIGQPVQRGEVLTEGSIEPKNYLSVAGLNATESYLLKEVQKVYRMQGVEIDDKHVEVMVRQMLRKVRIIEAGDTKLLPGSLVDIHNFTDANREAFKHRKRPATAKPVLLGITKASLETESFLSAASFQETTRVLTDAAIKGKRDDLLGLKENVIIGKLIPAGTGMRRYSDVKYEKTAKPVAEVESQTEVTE

COC(=O)N/C=C/CCCc1cc(O)c(C(=O)/C(C)=C/C=C(\C)CCCC(F)(F)F)c(=O)o1 [compound 9, Methyl ((E)-5-(4-hydroxy-2-oxo-3-((2E,4E)-9,9,9-trifluoro-2,5-dimethylnona-2,4-dienoyl)-2H-pyran-6-yl)pent-1-en-1-yl)carbamate]
IC50 [1]: 5 nM
IC50 [2, 14]: 60 nM
serum shift [3]: 8
MIC [4]: 10 µg/mL (≈ 21.2 µM)

COC(=O)N/C=C/CCC(C)c1cc(O)c(C(=O)/C(C)=C/C=C(\C)CCCCC(F)(F)F)c(=O)o1 (stereo not drawn) [compound 3, Methyl ((E)-5-(4-hydroxy-2-oxo-3-((2E,4E)-10,10,10-trifluoro-2,5-dimethyldeca-2,4-dienoyl)-2H-pyran-6-yl)hex-1-en-1-yl)carbamate]
IC50 [1]: 10 nM
IC50 [2]: 200 nM
IC50 [5]: 40 nM
serum shift [3]: 16
MIC [4]: 10 µg/mL (≈ 20 µM)

COC(=O)N/C=C/CCC(C)c1cc(O)c(C(=O)/C(C)=C/C=C(\C)CCC(F)(F)F)c(=O)o1 (stereo not drawn) [compound 5]
IC50 [1]: 4 nM
IC50 [2, 14]: 100 nM
IC50 ([5]; read-out: IC50 S. aureus RNAP): 100 nM
serum shift [3]: 8
MIC [4]: > 40 µg/mL

CCCC/C(C)=C/C=C(\C)C(=O)c1c(O)cc([C@H](C)CC/C=C/NC(=O)OC)oc1=O (racemic) [Myx B, (±)myxopyronin B, reference compound]
IC50 [1]: 10 nM
IC50 [2, 14]: 100 nM
IC50 ([5]; read-out: IC50 S. aureus RNAP): 70 nM
MIC B. anthracis Vollum1b ([6]; broth microdilution): 6 µg/mL (≈ 13.9 µM)
MIC F. tularensis SCHU4 ([7]; broth microdilution): 2 µg/mL (≈ 4.63 µM)
MIC B. mallei CHN7 ([8]; broth microdilution): 6 µg/mL (≈ 13.9 µM)
MIC B. pseudomallei Human/Blood/OH/US/1994 ([9]; broth microdilution): 30 µg/mL (≈ 69.5 µM)
MIC B. melitensis 16M ([10]; broth microdilution): 3 µg/mL (≈ 6.95 µM)
logD (pH 7.4): 1.8
serum shift [3]: 16
half-life human liver microsomes [11]: 3 min
MIC E. faecalis 19433 ([4]; 16 h at 37° C., Mueller-Hinton II agar): 20 µg/mL (≈ 46.3 µM)

COC(=O)N/C=C/CCCc1cc(O)c(C(=O)/C(C)=C/C=C(\C)CCC(F)(F)F)c(=O)o1 [compound 11, Methyl ((E)-5-(4-hydroxy-2-oxo-3-((2E,4E)-8,8,8-trifluoro-2,5-dimethylocta-2,4-dienoyl)-2H-pyran-6-yl)pent-1-en-1-yl)carbamate]
IC50 [1]: 20 nM
serum shift [3]: 4
MIC [4]: > 40 µg/mL

COC(=O)N/C=C/CCC(C)c1cc(O)c(C(=O)/C(C)=C/C=C(\C)CCCC(F)(F)F)c(=O)o1 (stereo not drawn) [compound 1, Methyl ((E)-5-(4-hydroxy-2-oxo-3-((2E,4E)-9,9,9-trifluoro-2,5-dimethylnona-2,4-dienoyl)-2H-pyran-6-yl)hex-1-en-1-yl)carbamate]
IC50 [1]: 4 nM
IC50 [2, 14]: 30 nM
IC50 ([5]; read-out: IC50 S. aureus RNAP): 10 nM
MIC ([6]; Bacillus anthracis, VOLLUM1B, read-out: MIC B. anthracis Vollum1b): 6 µg/mL (≈ 12.4 µM)
MIC ([7]; Francisella tularensis, SCHU4, read-out: MIC F. tularensis SCHU4): 3 µg/mL (≈ 6.18 µM)
MIC ([8]; Burkholderia mallei, CHN7, read-out: MIC B. mallei CHN7): 10 µg/mL (≈ 20.6 µM)
MIC ([9]; Burkholderia pseudomallei, read-out: MIC B. pseudomallei Human/Blood/OH/US/1994): 50 µg/mL (≈ 103 µM)
MIC ([10]; Brucella melitensis, 16M, read-out: MIC B. melitensis 16M): 6 µg/mL (≈ 12.4 µM)
serum shift [3]: 8
logD [12]: 1.4
MIC [4]: 9 µg/mL (≈ 18.5 µM)
higher metabolic stability than (±)myxopyronin B ([13]; human liver microsomes, relative to Myx B): 4 to 5 times
half-life ([13]; human, liver microsomes): 14 min
